# Measured values as given in patent US20250171744A1, “METHODS OF REPROGRAMMING SOMATIC CELLS AND MATERIALS RELATED THERETO” (CITY OF HOPE, priority 2019, published 2025).
# System: FPGS^ko cells
# Assay: Chemical complementation (nutrient supplementation) of FPGS mutants (FIG. 14)
# Type: cell-based, human
# Protocol: The growth medium was supplemented with 1 and 2× essential amino acids (EAAs), and cells were grown for […] (A2-A3). Additionally, to check the growth behavior of the mutant in a different basal medium, regular DMEM and IMDM with 1×NEAAs were tested. To rescue the phenotype of FPGS^ko, 5-CHO-THF (1 mM) with sodium hypoxanthine (10 mM) and thymidine (1.6 mM) mixture (HT; Thermo Fisher Scientific) was exogenously applied to IMDM, respectively (A5, A6), and compared with the FPGS^ko cells (A1) and WT cells […] grown with only solvent as a control. […] All the experiments were carried out in triplicate and cell proliferation was measured using a Cellometer. The number of cells for each cell line is compared with the number of colonies for parental 293T cells. Error bars indicate means±SE (n=4). *P<0.05, **P<0.001.
# Chemical complementation assays of FPGS mutants: Cells were maintained as monolayers in DMEM with Gluta-Max (Corning) supplemented with 10% FBS at 37° C. in a 5% CO2 atmosphere. To supplement the growth medium with amino acids, 1× and 2× doses of essential amino acids (Thermo Fisher Scientific) were added in the medium and the cells were grown as previously described for 5 days. […] All the experiments were carried out in triplicate, and cell proliferation was measured using a Cellometer Auto T4 Counting Chamber (Nexcelom Bioscience, Lawrence, MA, USA). […]
compound,measurement,setting,value
"Nc1nc2c(c(=O)[nH]1)N(C=O)[C@@H](CNc1ccc(C(=O)N[C@@H](CCC(=O)O)C(=O)O)cc1)CN2 [5-CHO-THF, 6S-5-formyl-5,6,7,8-tetrahydrofolic acid]",cell growth of FPGS^ko mutant,IMDM supplemented with 1 mM 5-CHO-THF and 1×NEAAs,substantial increases in cell growth
same,growth rate of FPGS^ko mutant,"IMDM with 1 mM 5-CHO-THF, 1×NEAAs, hypoxanthine (10 mM) and thymidine (1.6 mM)",almost full restoration of growth rate
